{"source": "patent US20180000778A1", "about": "“SMALL MOLECULE ANTAGONISTS OF DUSP5 AND METHODS OF USE” (THE MEDICAL COLLEGE OF WISCONSIN, INC., priority 2015, published 2018)", "key": {"DUSP5 PD(WT)": {"target": "T1, DUSP5 PD(WT) (Homo sapiens, UniProt Q16690)", "T1 construct": "hexa-histidine (N); made in house; host or cells: E. coli BL21(DE3)", "T1 sequence (Q16690 178-319 limits assumed)": "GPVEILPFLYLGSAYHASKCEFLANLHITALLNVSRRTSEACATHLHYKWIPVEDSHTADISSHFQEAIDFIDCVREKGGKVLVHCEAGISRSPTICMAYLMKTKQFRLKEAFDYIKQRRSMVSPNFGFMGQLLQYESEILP", "experiment": "pNPP phosphatase activity assay with DUSP5 PD(WT)", "assay_type": "biochemical", "source_text": "p-Nitrophenolphosphatase (pNPP) Activity Assay.\nTo measure enzymatic activity of the DUSP5 PD and the inhibitory capacity of selected molecules, an in vitro phosphatase assay was developed based on previous studies (27). In this assay, DUSP5 PD dephosphorylates the substrate p-nitrophenol phosphate (pNPP, Sigma Aldrich), yielding p-nitrophenolate, which absorbs at 405 nm with an extinction coefficient of 18,000 M-1 cm-1.\nThus, an increase in absorbance at 405 nm corresponds to the turnover of pNPP top-nitrophenolate. The assay was initially optimized in 1 mL quartz cuvettes, then was subsequently optimized for and validated in a 96-well plate format. All IC50 values were obtained using the 96-well plate assay format (see below). The assay buffer contained 100 mM Tris, 100 mM sodium chloride, 5 mM magnesium chloride, and 1 mM dithiothreitol (DTT) at pH 7.5. The pNPP substrate was prepared as a 50 mM stock by dissolving the solid substrate in assay buffer. The DUSP5 PD and pNPP were assayed initially in a cuvette (1 mL total volume) and initial velocities were fitted to the Michaelis-Menten equation (1)\nwhere v is the initial velocity, Vmax is the maximum velocity, Km is the Michaelis constant, and [S] is the concentration of pNPP. Data were fitted using a nonlinear least squares fit to eq. 1, with GraphPad Prism 6 software.\nFor the 96-well plate validation assay, sodium orthovanadate (Sigma Aldrich) was utilized as a positive control for inhibition (Swarup et al., Biochem Biophys Res Commun. 1982; 107:1104-9.) at a final concentration of 10 μM, to completely block activity. All plate assays were performed in standard 96-well clear bottom plates (Thermo Scientific Nunc) with a total assay volume of 200 μL, using a SpectraMax M5 Microplate Reader (Molecular Devices). The plate validation assay was performed with replicate columns of positive control wells, negative control wells and blank wells. Blank columns contained only buffer and pNPP. Negative control (uninhibited) contained buffer, pNPP, and DUSP5 PD; and, positive control contained the same components, but also contained 10 μM sodium orthovanadate. The plate was then shaken and allowed to equilibrate in the spectrophotometer at 25° C. for 30 min. After incubation, 4 μL of a […] was dispensed into appropriate wells utilizing a single-channel pipette. This produced a final enzyme concentration of 1 μM. Before a read was taken, the plate was shaken for five seconds. The initial rate for the DUSP5 PD reaction was linear for approximately 90 min; and, the plate was kept in the spectrophotometer at 25° C. for an additional 80 min after the kinetic read. The endpoint reading was subsequently taken at 90 min after initiation of reaction. Slopes from the kinetic read, as well as single-point absorbance values at the 90-minute endpoint read, were then averaged. For blank wells and positive control wells, both slope values (continuous assay) and single point absorbance values (fixed time assay) were approximately zero, as expected. Standard deviations were calculated and a Z′ value (Zhang et al., J Biomol Screening. 1999; 4:67-73) subsequently determined using the following equation: […]\nIC50 values were obtained using the assay described above, in 96 well plates. The maximum inhibitor concentration screened in any plate was […] and the minimum was 1.5 μM. The IC50 plate was designed so that the first column of wells served as blanks, with wells containing only buffer and substrate. The second column of wells functioned as the plate negative control, with each well containing buffer, substrate and enzyme. The remaining wells in the plate contained buffer, substrate, enzyme, and varying amounts of inhibitor, with inhibitor concentration increasing from left to right across the plate. Data points were collected in triplicate, and inhibitor concentrations were chosen to provide data equally spread on a logarithmic scale. […]"}, "DUSP5 PD(C263S)": {"target": "T2, DUSP5 PD(C263S) (Homo sapiens, UniProt Q16690, C263S)", "T2 construct": "hexa-histidine (N); made in house; host or cells: E. coli BL21(DE3), M9 minimal media with 15NH4Cl", "T2 sequence (Q16690 178-319 C263S limits assumed)": "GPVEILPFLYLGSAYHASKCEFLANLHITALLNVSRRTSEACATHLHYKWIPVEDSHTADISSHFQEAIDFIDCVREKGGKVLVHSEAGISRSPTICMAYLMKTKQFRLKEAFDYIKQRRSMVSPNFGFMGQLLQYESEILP", "experiment": "NMR binding assay, 2D 1H-15N HSQC titration", "settings": "pH 6.8; 250 μM RR505 or 500 μM CSD3-2320", "method": "NMR samples of DUSP5 PD(C263 S) were prepared for 2D 1H-15N HSQC (heteronuclear single quantum coherence) spectral titration studies. The 15N-labeled DUSP5 PD(C263) protein was concentrated using an Amicon Ultra-4 centrifugal device (Millipore) to 600 μM.\nNMR samples were prepared with the following conditions for RR505: ±250 μM RR505, 250 μM DUSP5 PD (C263S), 10% D20, 50 mM potassium phosphate, 100 mM KCl, and 2 mM DTT at pH 6.8.\nNMR samples were prepared with the following conditions for CSD3-2320: ±500 μM CSD3-2320, 500 μM DUSP5 PD (C263S), 10% D20, 50 mM potassium phosphate, 100 mM KCl, and 2 mM DTT at pH 6.8. NMR experiments were performed on a 500 MHz Varian NMR System using a triple resonance probe with z-axis gradients at 25° C."}}, "data": [{"smiles": "O=S(=O)(O)c1cc(O)c2c(S(=O)(=O)O)cccc2c1", "note": "[RR527]", "values": [{"measurement": "IC50", "setting": "DUSP5 PD(WT); pNPP assay with DUSP5 PD", "value": 0.484, "unit": "mM"}, {"measurement": "IC50", "setting": "DUSP5 PD(WT); phosphatase domain alone, pNPP", "value": 33, "unit": "mM"}, {"measurement": "binding by HSQC crosspeak changes", "setting": "DUSP5 PD(C263S)", "value": "direct binding"}]}, {"smiles": "O=S(=O)([O-])c1ccc2[nH]c3c(S(=O)(=O)[O-])cc(S(=O)(=O)[O-])cc3c2c1.[Na+].[Na+].[Na+]", "note": "[RR505, Carbazole-1,3,6-trisulfonic acid, Trisodium Salt]", "values": [{"measurement": "IC50's, range in words", "setting": "DUSP5 PD(WT); enzyme inhibition (FIG. 3)", "value": "mM range"}, {"measurement": "binding by HSQC crosspeak changes", "setting": "DUSP5 PD(C263S)", "value": "direct binding"}]}]}
